{"source": "patent US12564597B2", "about": "(priority 2020, dated 2026)", "key": {"[1]": {"assay": "Example 2B: similar metabolism analysis of further deuterated ibogaine analogs", "type": "in vitro ADME", "conditions": "present tense, no data", "description": "A similar analysis is performed with each of CD2HO-ibogamine, CDH2O-ibogamine, CD3CD2O-ibogamine, CD3CH2O-ibogamine, CH3CD2O-ibogamine and CH3CDHO-ibogamine."}, "[2]": {"assay": "Plasma pharmacokinetics and brain distribution in male Wistar rats after a single intraperitoneal dose", "conditions": "for AUC(0-t) / Cmax / Tmax: ip, 40 mg/kg; for AUC(0-t): AUClast", "description": "Formulation strengths for intraperitoneal administration was 4 mg/mL. A weighed quantity of compound was combined with an appropriate volume of vehicle (10% ethanol and 90% normal saline), the mixture was warmed to 55° C. and vortexed until a clear yellowish solution was obtained. The dosing volume administered was 10 mL/kg for intraperitoneal route.\nHealthy male Wistar rats (8-12 weeks old) weighing between 280 to 300 g were procured from Global, India. Three rats were housed in each cage. […] Temperature and humidity were recorded by auto-controlled data logger system. All the animals were provided laboratory rodent diet (Envigo Research private Ltd, Hyderabad). Reverse osmosis water treated with ultraviolet light was provided ad libitum.\nBlood samples (approximately 120 μL) were collected under light isoflurane anesthesia from retro orbital plexus from a set of three rats at specified time intervals. Samples were collected into labeled micro-tubes, containing K2EDTA solution (10 μL of 20% K2EDTA of solution per mL of blood) as an anticoagulant. Plasma was immediately harvested from the blood by centrifugation at 4000 rpm for 10 min at 4±2° C. and stored below −70±10° C. until bioanalysis.\nImmediately, after blood collection animals were euthanized with excess CO2 and brain was isolated at each time point. Brain was rinsed three times in ice cold PBS (for 5-10 seconds/rinse using ˜5-10 mL fresh PBS in disposable petri dish for each rinse) and dried on blotting paper. Brain samples were homogenized using ice-cold phosphate buffer saline (pH 7.4) and homogenates were stored below −70±10° C. until analysis. Total homogenate volume was three times the tissue weight.\nThe extraction procedure for plasma and brain samples and the spiked plasma and brain calibration standards were identical: A 25 PL of study sample or spiked plasma and brain calibration standard was added to individual pre-labeled micro-centrifuge tubes followed by 100 PL of internal standard prepared in Acetonitrile (Glipizide, 500 ng/mL) was added except for blank, where 100 μL of Acetonitrile was added. Samples were vortexed for 5 minutes and then centrifuged for 10 minutes at a speed of 4000 rpm at 4° C. Following centrifugation, 100 μL of clear supernatant was transferred to a 96 well plate and analyzed using LC-MS/MS.\nNon-compartmental analysis tool of Phoenix WinNonlin® (Version 7.0) was used to assess the pharmacokinetic parameters. Peak plasma concentrations (Cmax) and time for the peak plasma concentrations (Tmax) were the observed values. The areas under the concentration time curve (AUClast and AUCinf) were calculated by linear trapezoidal rule. The terminal elimination rate constant, ke was determined by regression analysis of the linear terminal portion of the log plasma concentration-time curve."}, "[3]": {"conditions": "0.08 h after CD3O-ibogamine 40 mg/kg i.p."}, "[4]": {"conditions": "0.08 h after ibogaine 40 mg/kg i.p."}, "[5]": {"conditions": "0.5 h after CD3O-ibogamine 40 mg/kg i.p."}, "[6]": {"conditions": "0.5 h after ibogaine 40 mg/kg i.p."}, "[7]": {"conditions": "1 h after CD3O-ibogamine 40 mg/kg i.p."}, "[8]": {"conditions": "1 h after ibogaine 40 mg/kg i.p."}, "[9]": {"conditions": "2 h after CD3O-ibogamine 40 mg/kg i.p."}, "[10]": {"conditions": "2 h after ibogaine 40 mg/kg i.p."}, "[11]": {"conditions": "3 h after CD3O-ibogamine 40 mg/kg i.p."}, "[12]": {"conditions": "3 h after ibogaine 40 mg/kg i.p."}, "[13]": {"conditions": "male, Wistar, rat, in vivo, plasma, analyte after CD3O-ibogamine 40 mg/kg i.p."}, "[14]": {"conditions": "male, Wistar, rat, in vivo, plasma, analyte after ibogaine 40 mg/kg i.p."}, "[15]": {"conditions": "male, Wistar, rat, in vivo, brain, analyte after CD3O-ibogamine 40 mg/kg i.p."}, "[16]": {"conditions": "male, Wistar, rat, in vivo, brain, analyte after ibogaine 40 mg/kg i.p."}}, "data": [{"smiles": "[2H]C([2H])([2H])COc1ccc2[nH]c3c(c2c1)CCN1CC2CC(CC)C1C3C2", "note": "(stereo not shown) [CD3CH2O-ibogamine]", "values": [{"measurement": "degradation compared to ibogaine", "setting": "[1]", "result": "at least as fast or faster than ibogaine"}, {"measurement": "formation of noribogaine compared to that of ibogaine", "setting": "[1]", "result": "as fast or slower"}]}, {"smiles": "CCC1CC2CC3c4[nH]c5ccc(O)cc5c4CCN(C2)C13", "note": "(stereo not shown) [Noribogaine]", "values": [{"measurement": "Mean brain concentration", "setting": "[2]; [3]", "result": 2997, "unit": "ng/g"}, {"measurement": "Mean plasma concentration", "setting": "[2]; [3]", "result": 208, "unit": "ng/mL"}, {"measurement": "Mean brain concentration", "setting": "[2]; [4]", "result": 2383, "unit": "ng/g"}, {"measurement": "Mean plasma concentration", "setting": "[2]; [4]", "result": 312, "unit": "ng/mL"}, {"measurement": "Mean brain concentration", "setting": "[2]; [5]", "result": 10413, "unit": "ng/g"}, {"measurement": "Mean plasma concentration", "setting": "[2]; [5]", "result": 677, "unit": "ng/mL"}, {"measurement": "Mean brain concentration", "setting": "[2]; [6]", "result": 14563, "unit": "ng/g"}, {"measurement": "Mean plasma concentration", "setting": "[2]; [6]", "result": 1179, "unit": "ng/mL"}, {"measurement": "Mean brain concentration", "setting": "[2]; [7]", "result": 13254, "unit": "ng/g"}, {"measurement": "Mean plasma concentration", "setting": "[2]; [7]", "result": 736, "unit": "ng/mL"}, {"measurement": "Mean brain concentration", "setting": "[2]; [8]", "result": 17727, "unit": "ng/g"}, {"measurement": "Mean plasma concentration", "setting": "[2]; [8]", "result": 1455, "unit": "ng/mL"}, {"measurement": "Mean brain concentration", "setting": "[2]; [9]", "result": 14940, "unit": "ng/g"}, {"measurement": "Mean plasma concentration", "setting": "[2]; [9]", "result": 690, "unit": "ng/mL"}, {"measurement": "Mean brain concentration", "setting": "[2]; [10]", "result": 11692, "unit": "ng/g"}, {"measurement": "Mean plasma concentration", "setting": "[2]; [10]", "result": 846, "unit": "ng/mL"}, {"measurement": "Mean brain concentration", "setting": "[2]; [11]", "result": 10509, "unit": "ng/g"}, {"measurement": "Mean plasma concentration", "setting": "[2]; [11]", "result": 584, "unit": "ng/mL"}, {"measurement": "Mean brain concentration", "setting": "[2]; [12]", "result": 10540, "unit": "ng/g"}, {"measurement": "Mean plasma concentration", "setting": "[2]; [12]", "result": 861, "unit": "ng/mL"}, {"measurement": "AUClast", "setting": "[2]; brain, analyte after CD3O-ibogamine 40 mg/kg i.p.", "result": 36953.27, "unit": "ng·h/g"}, {"measurement": "AUClast", "setting": "[2]; brain, analyte after ibogaine 40 mg/kg i.p.", "result": 39658.47, "unit": "ng·h/g"}, {"measurement": "Mean brain concentration", "setting": "[2]; male, Wistar, rat, in vivo", "result": 17341, "unit": "ng/g"}, {"measurement": "Mean plasma concentration", "setting": "[2]; male, Wistar, rat, in vivo", "result": 871, "unit": "ng/mL"}, {"measurement": "AUC(0-t)", "setting": "[2]; [13]", "result": 1970, "unit": "ng·h/mL"}, {"measurement": "AUC(0-t)", "setting": "[2]; [14]", "result": 3030, "unit": "ng·h/mL"}, {"measurement": "Cmax", "setting": "[2]; [15]", "result": 14900, "unit": "ng/g"}, {"measurement": "Cmax", "setting": "[2]; [16]", "result": 17700, "unit": "ng/g"}, {"measurement": "Cmax", "setting": "[2]; [13]", "result": 736, "unit": "ng/mL"}, {"measurement": "Cmax", "setting": "[2]; [14]", "result": 1460, "unit": "ng/mL"}, {"measurement": "Tmax", "setting": "[2]; [15]", "result": 2, "unit": "h"}, {"measurement": "Tmax", "setting": "[2]; [16]", "result": 1, "unit": "h"}, {"measurement": "Tmax", "setting": "[2]; [13]", "result": 1, "unit": "h"}, {"measurement": "Tmax", "setting": "[2]; [14]", "result": 1, "unit": "h"}]}, {"smiles": "[2H]C([2H])(C)Oc1ccc2[nH]c3c(c2c1)CCN1CC2CC(CC)C1C3C2", "note": "(stereo not shown) [CH3CD2O-ibogamine]", "values": [{"measurement": "degradation compared to ibogaine", "setting": "[1]", "result": "at least as fast or faster than ibogaine"}, {"measurement": "formation of noribogaine compared to that of ibogaine", "setting": "[1]", "result": "as fast or slower"}]}, {"smiles": "[2H]C([2H])([2H])C([2H])([2H])Oc1ccc2[nH]c3c(c2c1)CCN1CC2CC(CC)C1C3C2", "note": "(stereo not shown) [CD3CD2O-ibogamine]", "values": [{"measurement": "degradation compared to ibogaine", "setting": "[1]", "result": "at least as fast or faster than ibogaine"}, {"measurement": "formation of noribogaine compared to that of ibogaine", "setting": "[1]", "result": "as fast or slower"}]}, {"smiles": "[2H]COc1ccc2[nH]c3c(c2c1)CCN1CC2CC(CC)C1C3C2", "note": "(stereo not shown) [CDH2O-ibogamine]", "values": [{"measurement": "degradation compared to ibogaine", "setting": "[1]", "result": "at least as fast or faster than ibogaine"}, {"measurement": "formation of noribogaine compared to that of ibogaine", "setting": "[1]", "result": "as fast or slower"}]}, {"smiles": "[2H]C([2H])Oc1ccc2[nH]c3c(c2c1)CCN1CC2CC(CC)C1C3C2", "note": "(stereo not shown) [CD2HO-ibogamine]", "values": [{"measurement": "degradation compared to ibogaine", "setting": "[1]", "result": "at least as fast or faster than ibogaine"}, {"measurement": "formation of noribogaine compared to that of ibogaine", "setting": "[1]", "result": "as fast or slower"}]}, {"smiles": "[2H]C(C)Oc1ccc2[nH]c3c(c2c1)CCN1CC2CC(CC)C1C3C2", "note": "(stereo not shown) [CH3CDHO-ibogamine]", "values": [{"measurement": "degradation compared to ibogaine", "setting": "[1]", "result": "at least as fast or faster than ibogaine"}, {"measurement": "formation of noribogaine compared to that of ibogaine", "setting": "[1]", "result": "as fast or slower"}]}]}
